The values that follow come from ChEMBL document CHEMBL1909046, “DrugMatrix in vitro pharmacology data”.

SMILES strings stand for the structures.

Sequence of Cytochrome P450 3A4 (P08684 whole entry): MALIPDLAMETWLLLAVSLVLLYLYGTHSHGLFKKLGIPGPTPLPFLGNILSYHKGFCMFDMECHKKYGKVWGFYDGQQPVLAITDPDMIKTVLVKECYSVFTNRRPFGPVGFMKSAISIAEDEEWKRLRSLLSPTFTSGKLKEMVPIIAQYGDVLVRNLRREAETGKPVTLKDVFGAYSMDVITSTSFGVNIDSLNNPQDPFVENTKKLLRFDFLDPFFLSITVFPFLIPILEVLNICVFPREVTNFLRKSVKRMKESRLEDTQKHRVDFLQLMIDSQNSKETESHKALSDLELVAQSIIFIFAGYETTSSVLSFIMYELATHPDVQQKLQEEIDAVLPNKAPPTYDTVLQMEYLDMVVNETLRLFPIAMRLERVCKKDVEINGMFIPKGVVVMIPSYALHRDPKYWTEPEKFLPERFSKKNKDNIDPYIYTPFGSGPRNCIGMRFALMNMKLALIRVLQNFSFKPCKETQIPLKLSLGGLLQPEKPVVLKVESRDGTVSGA
Sequence of Cytochrome P450 2C19 (P33261 whole entry): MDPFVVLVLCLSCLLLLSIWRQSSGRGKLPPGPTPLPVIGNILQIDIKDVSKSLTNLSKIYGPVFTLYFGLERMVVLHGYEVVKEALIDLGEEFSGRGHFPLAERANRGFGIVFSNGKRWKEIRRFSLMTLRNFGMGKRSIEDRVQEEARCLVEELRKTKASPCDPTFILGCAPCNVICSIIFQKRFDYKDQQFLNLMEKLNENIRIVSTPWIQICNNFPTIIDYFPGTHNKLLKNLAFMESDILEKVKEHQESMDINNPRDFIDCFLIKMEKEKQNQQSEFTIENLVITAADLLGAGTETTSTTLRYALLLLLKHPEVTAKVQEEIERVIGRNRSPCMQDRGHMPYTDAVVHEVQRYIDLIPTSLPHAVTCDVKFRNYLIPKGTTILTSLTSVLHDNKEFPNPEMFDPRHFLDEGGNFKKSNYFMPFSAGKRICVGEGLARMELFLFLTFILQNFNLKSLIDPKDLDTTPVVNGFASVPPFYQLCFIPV
Sequence of Voltage-gated inwardly rectifying potassium channel KCNH2 (Q12809 whole entry): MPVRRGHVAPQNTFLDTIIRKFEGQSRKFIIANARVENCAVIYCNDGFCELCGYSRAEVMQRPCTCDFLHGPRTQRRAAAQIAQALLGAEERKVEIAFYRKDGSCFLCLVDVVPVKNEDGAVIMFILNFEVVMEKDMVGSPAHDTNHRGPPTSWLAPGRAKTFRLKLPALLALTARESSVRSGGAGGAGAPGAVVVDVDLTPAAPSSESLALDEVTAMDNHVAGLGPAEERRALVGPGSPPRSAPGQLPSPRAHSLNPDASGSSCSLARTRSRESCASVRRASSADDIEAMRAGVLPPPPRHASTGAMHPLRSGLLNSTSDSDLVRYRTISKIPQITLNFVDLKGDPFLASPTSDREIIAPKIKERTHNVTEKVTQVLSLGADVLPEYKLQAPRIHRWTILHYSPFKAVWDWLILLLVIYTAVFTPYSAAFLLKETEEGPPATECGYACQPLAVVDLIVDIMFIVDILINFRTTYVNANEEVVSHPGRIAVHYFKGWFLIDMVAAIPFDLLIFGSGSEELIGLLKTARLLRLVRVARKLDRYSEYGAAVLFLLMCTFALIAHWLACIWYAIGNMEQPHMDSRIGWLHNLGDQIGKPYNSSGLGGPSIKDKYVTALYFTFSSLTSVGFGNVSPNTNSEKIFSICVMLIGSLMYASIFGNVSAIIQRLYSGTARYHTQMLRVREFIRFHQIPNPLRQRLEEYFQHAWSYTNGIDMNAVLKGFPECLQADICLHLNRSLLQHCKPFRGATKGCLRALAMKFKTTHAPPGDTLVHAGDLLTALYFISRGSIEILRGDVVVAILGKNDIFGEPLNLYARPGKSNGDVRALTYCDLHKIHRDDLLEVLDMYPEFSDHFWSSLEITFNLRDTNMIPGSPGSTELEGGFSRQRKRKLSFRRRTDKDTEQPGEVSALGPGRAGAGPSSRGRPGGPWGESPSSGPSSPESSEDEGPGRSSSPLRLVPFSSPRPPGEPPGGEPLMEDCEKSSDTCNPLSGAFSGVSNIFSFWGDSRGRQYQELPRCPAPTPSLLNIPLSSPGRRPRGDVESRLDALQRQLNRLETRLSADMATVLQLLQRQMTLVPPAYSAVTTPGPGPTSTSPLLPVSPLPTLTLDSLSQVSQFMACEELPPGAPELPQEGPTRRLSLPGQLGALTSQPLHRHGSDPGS

The first series concerns the target T1, Cytochrome P450 2A6 (Homo sapiens, UniProt P11509). Also: in other assays of this panel Not Active means under 50% inhibition at 10 µM.
T1 sequence (P11509 whole entry): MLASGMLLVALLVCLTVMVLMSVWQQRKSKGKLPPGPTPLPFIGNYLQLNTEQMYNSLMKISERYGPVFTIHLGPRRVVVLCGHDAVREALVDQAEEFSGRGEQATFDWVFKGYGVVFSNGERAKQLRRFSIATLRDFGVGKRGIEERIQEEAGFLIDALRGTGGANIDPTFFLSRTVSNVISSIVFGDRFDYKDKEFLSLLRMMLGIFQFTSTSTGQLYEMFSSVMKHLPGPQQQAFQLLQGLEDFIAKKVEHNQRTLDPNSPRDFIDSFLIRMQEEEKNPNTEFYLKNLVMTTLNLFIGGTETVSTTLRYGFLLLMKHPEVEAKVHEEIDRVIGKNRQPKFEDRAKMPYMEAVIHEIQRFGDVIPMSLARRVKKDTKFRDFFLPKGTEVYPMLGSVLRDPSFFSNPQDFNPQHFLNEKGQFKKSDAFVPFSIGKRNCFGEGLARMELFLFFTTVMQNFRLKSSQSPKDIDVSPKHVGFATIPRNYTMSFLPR
Experiment: not given
The conditions noted are these: bti-tn-5b1-4.
Take `O=C1NC(=O)C(c2ccccc2)(c2ccccc2)N1` [PHENYTOIN]: the IC50 entry is reported as “Not Active” and the Ki entry was “Not Active”.
Take `COc1ccc2c(c1)c(CC(=O)OCC(=O)O)c(C)n2C(=O)c1ccc(Cl)cc1` [ACEMETACIN]: the IC50 result is “Not Active” and the Ki result is “Not Active”.
For the compound `CC1(C)S[C@@H]2[C@H](NC(=O)[C@H](NC(=O)N3CCNC3=O)c3ccccc3)C(=O)N2[C@H]1C(=O)O` [AZLOCILLIN], the IC50 result is given as “Not Active” and the Ki entry was “Not Active”.
With `CCOC(=O)OC(C)OC1=C(C(=O)Nc2ccccn2)N(C)S(=O)(=O)c2ccccc21` (stereo not given) [AMPIROXICAM], the IC50 result is reported as “Not Active” and the Ki result is recorded as “Not Active”.

The target of a further series is Vasopressin V1a receptor (Homo sapiens, UniProt P37288). Also: in other assays of this panel Not Active means under 50% inhibition at 10 µM.
Sequence of Vasopressin V1a receptor (P37288 whole entry): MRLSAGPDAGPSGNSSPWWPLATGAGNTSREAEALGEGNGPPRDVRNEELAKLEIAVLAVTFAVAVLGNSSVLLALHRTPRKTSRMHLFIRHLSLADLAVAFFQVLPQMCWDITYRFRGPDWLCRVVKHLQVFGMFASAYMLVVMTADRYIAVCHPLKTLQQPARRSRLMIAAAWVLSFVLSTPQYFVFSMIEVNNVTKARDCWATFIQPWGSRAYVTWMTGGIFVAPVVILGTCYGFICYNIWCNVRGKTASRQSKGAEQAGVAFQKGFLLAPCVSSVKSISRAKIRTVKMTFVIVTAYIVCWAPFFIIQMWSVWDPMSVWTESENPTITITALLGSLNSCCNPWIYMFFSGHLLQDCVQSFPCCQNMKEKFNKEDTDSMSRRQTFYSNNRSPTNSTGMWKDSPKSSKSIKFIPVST
Experiment: not given
In kind it is cell membranes, Membrane. Particulars: hek293.
Turning to `O=C1NC(=O)C(c2ccccc2)(c2ccccc2)N1` [PHENYTOIN], the IC50 result is listed as “Not Active”.
For the compound `COc1ccc2c(c1)c(CC(=O)OCC(=O)O)c(C)n2C(=O)c1ccc(Cl)cc1` [ACEMETACIN], the IC50 result was “Not Active”.
On the same count and under the same terms, with `CC1(C)S[C@@H]2[C@H](NC(=O)[C@H](NC(=O)N3CCNC3=O)c3ccccc3)C(=O)N2[C@H]1C(=O)O` [AZLOCILLIN] the entry was “Not Active”.
For `CCOC(=O)OC(C)OC1=C(C(=O)Nc2ccccn2)N(C)S(=O)(=O)c2ccccc21` (stereo not given) [AMPIROXICAM], the IC50 entry is recorded as “Not Active”.

The next series concerns the target T2, Cytochrome P450 1A2 (Homo sapiens, UniProt P05177). Also: in other assays of this panel Not Active means under 50% inhibition at 10 µM.
T2 sequence (P05177 whole entry): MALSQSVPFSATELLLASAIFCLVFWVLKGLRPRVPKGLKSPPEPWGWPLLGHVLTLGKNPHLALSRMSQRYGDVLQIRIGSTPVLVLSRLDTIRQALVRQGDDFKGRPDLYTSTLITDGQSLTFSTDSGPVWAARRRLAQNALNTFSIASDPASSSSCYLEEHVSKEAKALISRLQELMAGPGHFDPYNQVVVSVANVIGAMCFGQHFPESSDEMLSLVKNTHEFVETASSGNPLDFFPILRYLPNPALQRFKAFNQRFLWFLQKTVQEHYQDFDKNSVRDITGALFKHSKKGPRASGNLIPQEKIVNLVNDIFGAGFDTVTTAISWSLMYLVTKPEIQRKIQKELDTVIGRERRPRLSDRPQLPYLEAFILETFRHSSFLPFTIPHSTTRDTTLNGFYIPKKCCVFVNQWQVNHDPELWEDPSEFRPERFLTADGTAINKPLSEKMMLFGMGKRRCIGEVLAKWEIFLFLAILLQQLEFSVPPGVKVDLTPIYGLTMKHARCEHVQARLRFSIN
Experiment: not given
Particulars: bti-tn-5b1-4.
In the case of `O=C1NC(=O)C(c2ccccc2)(c2ccccc2)N1` [PHENYTOIN], the IC50 result is “Not Active” and the Ki entry is “Not Active”.
With `COc1ccc2c(c1)c(CC(=O)OCC(=O)O)c(C)n2C(=O)c1ccc(Cl)cc1` [ACEMETACIN], the IC50 entry was “Not Active” and the Ki entry is recorded as “Not Active”.
With `CC1(C)S[C@@H]2[C@H](NC(=O)[C@H](NC(=O)N3CCNC3=O)c3ccccc3)C(=O)N2[C@H]1C(=O)O` [AZLOCILLIN], the IC50 result is given as “Not Active” and the Ki entry is reported as “Not Active”.
As for `CCOC(=O)OC(C)OC1=C(C(=O)Nc2ccccn2)N(C)S(=O)(=O)c2ccccc21` (stereo not given) [AMPIROXICAM], the IC50 entry is given as “Not Active” and the Ki result was “Not Active”.

The target of the next series is T3, Neuropeptide Y receptor type 2 (Homo sapiens, UniProt P49146). Also: in other assays of this panel Not Active means under 50% inhibition at 10 µM.
T3 sequence (P49146 whole entry): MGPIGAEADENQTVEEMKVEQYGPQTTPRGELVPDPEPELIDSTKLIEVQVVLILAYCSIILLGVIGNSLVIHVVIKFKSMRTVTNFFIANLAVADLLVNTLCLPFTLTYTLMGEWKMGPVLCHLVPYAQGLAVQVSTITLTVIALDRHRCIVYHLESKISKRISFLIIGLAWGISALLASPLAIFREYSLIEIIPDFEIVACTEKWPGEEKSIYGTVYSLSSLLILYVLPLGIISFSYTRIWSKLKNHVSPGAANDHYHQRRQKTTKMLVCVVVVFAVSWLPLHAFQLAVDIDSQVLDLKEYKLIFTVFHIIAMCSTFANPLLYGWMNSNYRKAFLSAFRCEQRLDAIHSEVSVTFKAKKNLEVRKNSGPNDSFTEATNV
Experiment: not given
Particulars: kan-ts. In kind it is cell membranes, Membrane.
For the compound `O=C1NC(=O)C(c2ccccc2)(c2ccccc2)N1` [PHENYTOIN], the IC50 result was “Not Active”.
Same read-out and setting: the entry for `COc1ccc2c(c1)c(CC(=O)OCC(=O)O)c(C)n2C(=O)c1ccc(Cl)cc1` [ACEMETACIN] is “Not Active”; for `CC1(C)S[C@@H]2[C@H](NC(=O)[C@H](NC(=O)N3CCNC3=O)c3ccccc3)C(=O)N2[C@H]1C(=O)O` [AZLOCILLIN] it is “Not Active”; for `CCOC(=O)OC(C)OC1=C(C(=O)Nc2ccccn2)N(C)S(=O)(=O)c2ccccc21` (stereo not given) [AMPIROXICAM] it is “Not Active”.

The target of a further series is Acetylcholinesterase (Homo sapiens, UniProt P22303). In words: DRUGMATRIX: Acetylcholinesterase enzyme inhibition (substrate: acetylthiocholine). In kind it is cell-based, HEK293. The conditions noted are these: hek293; Not Active = under 50% inhibition at 10 µM.
Sequence of Acetylcholinesterase (P22303 whole entry): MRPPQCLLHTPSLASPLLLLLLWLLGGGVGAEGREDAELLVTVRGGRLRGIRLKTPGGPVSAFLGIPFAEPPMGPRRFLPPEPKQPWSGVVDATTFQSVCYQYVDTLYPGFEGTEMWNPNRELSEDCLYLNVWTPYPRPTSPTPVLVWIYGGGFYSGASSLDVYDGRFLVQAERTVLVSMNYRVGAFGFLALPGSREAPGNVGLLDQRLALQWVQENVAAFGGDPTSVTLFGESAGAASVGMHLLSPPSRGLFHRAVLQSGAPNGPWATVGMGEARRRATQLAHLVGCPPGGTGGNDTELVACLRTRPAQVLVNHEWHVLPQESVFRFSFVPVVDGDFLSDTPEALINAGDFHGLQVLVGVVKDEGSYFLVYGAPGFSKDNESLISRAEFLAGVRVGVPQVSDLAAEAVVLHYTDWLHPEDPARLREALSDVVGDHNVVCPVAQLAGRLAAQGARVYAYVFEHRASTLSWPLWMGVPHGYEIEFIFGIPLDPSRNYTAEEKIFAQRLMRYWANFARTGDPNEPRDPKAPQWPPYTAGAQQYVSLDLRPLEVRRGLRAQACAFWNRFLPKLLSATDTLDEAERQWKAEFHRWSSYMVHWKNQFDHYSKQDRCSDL
On to `O=C1NC(=O)C(c2ccccc2)(c2ccccc2)N1` [PHENYTOIN], for which the IC50 entry is reported as “Not Active”.
On the same count and under the same terms, the entry for `COc1ccc2c(c1)c(CC(=O)OCC(=O)O)c(C)n2C(=O)c1ccc(Cl)cc1` [ACEMETACIN] is “Not Active”; for `CC1(C)S[C@@H]2[C@H](NC(=O)[C@H](NC(=O)N3CCNC3=O)c3ccccc3)C(=O)N2[C@H]1C(=O)O` [AZLOCILLIN] it is “Not Active”; for `CCOC(=O)OC(C)OC1=C(C(=O)Nc2ccccn2)N(C)S(=O)(=O)c2ccccc21` (stereo not given) [AMPIROXICAM] it is “Not Active”.

Another series addresses Voltage-gated inwardly rectifying potassium channel KCNH2 (Homo sapiens, UniProt Q12809).
Experiment: not given
Particulars: hek293.
As for `O=C1NC(=O)C(c2ccccc2)(c2ccccc2)N1` [PHENYTOIN], the IC50 entry is reported as “Not Active” and the Ki result was “Not Active”.
On to `COc1ccc2c(c1)c(CC(=O)OCC(=O)O)c(C)n2C(=O)c1ccc(Cl)cc1` [ACEMETACIN], for which the IC50 entry is given as “Not Active” and the Ki entry is given as “Not Active”.
On to `CC1(C)S[C@@H]2[C@H](NC(=O)[C@H](NC(=O)N3CCNC3=O)c3ccccc3)C(=O)N2[C@H]1C(=O)O` [AZLOCILLIN], for which the IC50 result is “Not Active” and the Ki entry is given as “Not Active”.
With `CCOC(=O)OC(C)OC1=C(C(=O)Nc2ccccn2)N(C)S(=O)(=O)c2ccccc21` (stereo not given) [AMPIROXICAM], the IC50 result is recorded as “Not Active” and the Ki entry is “Not Active”.

In a further series the target is T4, Thromboxane-A synthase (Homo sapiens, UniProt P24557).
T4 sequence (P24557 whole entry): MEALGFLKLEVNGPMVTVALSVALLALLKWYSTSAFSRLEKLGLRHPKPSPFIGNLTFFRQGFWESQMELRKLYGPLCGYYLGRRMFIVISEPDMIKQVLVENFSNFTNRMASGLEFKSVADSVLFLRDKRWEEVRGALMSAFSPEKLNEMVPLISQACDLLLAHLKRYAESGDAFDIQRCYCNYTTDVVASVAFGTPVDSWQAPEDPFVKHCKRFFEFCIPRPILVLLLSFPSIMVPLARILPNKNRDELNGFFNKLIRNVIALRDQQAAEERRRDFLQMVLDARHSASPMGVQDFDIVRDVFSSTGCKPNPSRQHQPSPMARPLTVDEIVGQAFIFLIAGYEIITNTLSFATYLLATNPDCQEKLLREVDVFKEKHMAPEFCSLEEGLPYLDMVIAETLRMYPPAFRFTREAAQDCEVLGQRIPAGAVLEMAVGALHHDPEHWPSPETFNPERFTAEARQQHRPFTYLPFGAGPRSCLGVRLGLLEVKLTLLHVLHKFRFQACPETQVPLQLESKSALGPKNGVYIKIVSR
In words: biochemical. Particulars: platelet. In kind it is tissue-based, Platelet.
With `O=C1NC(=O)C(c2ccccc2)(c2ccccc2)N1` [PHENYTOIN], the IC50 result is “Not Active”.
Turning to `COc1ccc2c(c1)c(CC(=O)OCC(=O)O)c(C)n2C(=O)c1ccc(Cl)cc1` [ACEMETACIN], the IC50 entry is listed as “Not Active”.
The same measure, in the same setting: the entry for `CC1(C)S[C@@H]2[C@H](NC(=O)[C@H](NC(=O)N3CCNC3=O)c3ccccc3)C(=O)N2[C@H]1C(=O)O` [AZLOCILLIN] is “Not Active”; for `CCOC(=O)OC(C)OC1=C(C(=O)Nc2ccccn2)N(C)S(=O)(=O)c2ccccc21` (stereo not given) [AMPIROXICAM] it is “Not Active”.

The next series addresses Cytochrome P450 3A4 (Homo sapiens, UniProt P08684).
Experiment: not given
The conditions noted are these: bti-tn-5b1-4.
Turning to `O=C1NC(=O)C(c2ccccc2)(c2ccccc2)N1` [PHENYTOIN], the IC50 result is listed as “Not Active” and the Ki result is reported as “Not Active”.
In the case of `COc1ccc2c(c1)c(CC(=O)OCC(=O)O)c(C)n2C(=O)c1ccc(Cl)cc1` [ACEMETACIN], the IC50 entry is “Not Active” and the Ki entry is recorded as “Not Active”.
Take `CC1(C)S[C@@H]2[C@H](NC(=O)[C@H](NC(=O)N3CCNC3=O)c3ccccc3)C(=O)N2[C@H]1C(=O)O` [AZLOCILLIN]: the IC50 result is on record as “Not Active” and the Ki result is “Not Active”.
Regarding `CCOC(=O)OC(C)OC1=C(C(=O)Nc2ccccn2)N(C)S(=O)(=O)c2ccccc21` (stereo not given) [AMPIROXICAM], the IC50 result was “Not Active” and the Ki entry is “Not Active”.

For another series, the target named is Carbonic anhydrase 2 (Homo sapiens, UniProt P00918). In words: DRUGMATRIX: Carbonic Anhydrase II enzyme inhibition (substrate: 4-Nitrophenyl acetate (4-NPA)). In kind it is tissue-based, Erythrocyte. Particulars: erythrocyte; Not Active = under 50% inhibition at 10 µM.
Turning to `O=C1NC(=O)C(c2ccccc2)(c2ccccc2)N1` [PHENYTOIN], the IC50 entry is listed as “Not Active”.
For the compound `COc1ccc2c(c1)c(CC(=O)OCC(=O)O)c(C)n2C(=O)c1ccc(Cl)cc1` [ACEMETACIN], the IC50 entry is recorded as “Not Active”.
The same measure, in the same setting: the entry for `CC1(C)S[C@@H]2[C@H](NC(=O)[C@H](NC(=O)N3CCNC3=O)c3ccccc3)C(=O)N2[C@H]1C(=O)O` [AZLOCILLIN] is “Not Active”; for `CCOC(=O)OC(C)OC1=C(C(=O)Nc2ccccn2)N(C)S(=O)(=O)c2ccccc21` (stereo not given) [AMPIROXICAM] it is “Not Active”.

The next series addresses Cytochrome P450 2C19 (Homo sapiens, UniProt P33261).
Experiment: not given
The conditions noted are these: bti-tn-5b1-4.
Take `O=C1NC(=O)C(c2ccccc2)(c2ccccc2)N1` [PHENYTOIN]: the IC50 entry is on record as “Not Active” and the Ki result is on record as “Not Active”.
Take `COc1ccc2c(c1)c(CC(=O)OCC(=O)O)c(C)n2C(=O)c1ccc(Cl)cc1` [ACEMETACIN]: the IC50 result is “Not Active” and the Ki result is “Not Active”.
Consider `CC1(C)S[C@@H]2[C@H](NC(=O)[C@H](NC(=O)N3CCNC3=O)c3ccccc3)C(=O)N2[C@H]1C(=O)O` [AZLOCILLIN], for which the IC50 entry is “Not Active” and the Ki result is “Not Active”.
As for `CCOC(=O)OC(C)OC1=C(C(=O)Nc2ccccn2)N(C)S(=O)(=O)c2ccccc21` (stereo not given) [AMPIROXICAM], the IC50 result is given as “Not Active” and the Ki result is “Not Active”.
